Data reported in US20170037007A1, “SUBSTITUTED N-(2-(AMINO)-2OXOETHYL)BENZAMIDE INHIBITORS OF AUTOTAXIN AND THEIR PREPARATION AND USE IN THE TREATMENT OF LPA-DEPENDENT OR LPA-MEDIATED DISEASES” (X-Rx, Inc., priority 2014, published 2017).

Biological target: T1, Autotaxin (Homo sapiens, UniProt Q13822)
T1 construct: purchased X-Chem
Test: Autotaxin LPC Cascade Assay
Assay type: biochemical
Settings: 5 nM autotaxin, 100 μM LPC, choline oxidase/HRP/Ampliflu Red fluorescence readout; read-out: IC50 ATX activity values, IC50
Experimental: Autotaxin LPC Cascade Assay
HA130 and Test Compounds:
Highest final concentration is […] for HA130 (Echelon, B-0701) and 30 μM for test compounds. Prepare a 1 mM stock of HA130 and a 3 mM stock of each compound in 100% DMSO. Perform a 1:3 serial dilution in DMSO (transfer 5 μl of compound to 10 μl of DMSO). Add 240 μl of buffer to generate a top working concentration of 40 µM (HA130) and 120 µM (test compound) in 4% DMSO.
Ampliflu Red—Prepare a stock of 5 mM from 100 mM in 100% DMSO. Further dilute to a working concentration of 400 μM in buffer (8% DMSO).
Together with compound this yields a 2% DMSO final concentration.
Choline Oxidase/HRP—0.8 U/ml CO and 8 U/ml HRP.
Add 5 μl of ATX and 5 μl of compound in a 384 well plate (Corning 3676). Incubate for 10 mins at RT. Add 5 μl of LPC and incubate for 1 hr on the plate shaker. Prepare the CO/HRP and AR prior to use. Add 2.5 μl of CO/HRP and follow with 2.5 μl AR. Note order of addition, CO/HRP mix before AR. Read fluorescence intensity (λex/λem: 530/590 nm) kinetically for 30 min at RT on the Tecan M1000.

SMILES	IC50
Cc1cccc(C(=O)N[C@@H](C(=O)N2CCC(C)(Nc3ccc(S(C)(=O)=O)cc3)CC2)C(C)C)c1F [Example 3, (R)-2-Fluoro-3-methyl-N-(3-methyl-1-(4-methyl-4-(4-(methylsulfonyl)phenylamino)piperidin-1-yl)-1-oxobutan-2-yl)benzamide]	500 to 5000 nM
Cc1cccc(C(=O)N[C@@H](C(=O)N2CCC(C)(Nc3ccc(C#N)cc3)CC2)C(C)C)c1F [Example 1, (R)—N-(1-(4-(4-Cyanophenylamino)-4-methylpiperidin-1-yl)-3-methyl-1-oxobutan-2-yl)-2-fluoro-3-methylbenzamide]	500 to 5000 nM
CC(C)[C@@H](NC(=O)c1cc(C(F)(F)F)ccc1F)C(=O)N1CCC(Nc2ccc(C(=O)O)cc2)CC1 [Example 24, (R)-4-(1-(2-(2-Fluoro-5-(trifluoromethyl)benzamido)-3-methylbutanoyl)piperidin-4-ylamino)benzoic acid]	≥ 10000 nM
CC(C)[C@H](NC(=O)c1cccc(OC(F)(F)F)c1)C(=O)N1CCC(C)(NCc2ccc(S(C)(=O)=O)cc2)CC1 [Example 42, (S)—N-(3-Methyl-1-(4-methyl-4-((4-(methylsulfonyl)benzyl)amino)piperidin-1-yl)-1-oxobutan-2-yl)-3-(trifluoromethoxy)benzamide]	500 to 5000 nM
COc1ccc(CNC2(C)CCN(C(=O)[C@H](NC(=O)c3cccc(OC(F)(F)F)c3)C(C)C)CC2)cc1 [Example 43, (R)—N-(1-(4-((4-Methoxybenzyl)amino)-4-methylpiperidin-1-yl)-3-methyl-1-oxobutan-2-yl)-3-(trifluoromethoxy)benzamide]	500 to 5000 nM
Cc1cccc(C(=O)N[C@@H](C(=O)N2CCC(C)(N(C)c3ccccc3)CC2)C(C)C)c1 [Example 20, (R)-3-Methyl-N-(3-methyl-1-(4-methyl-4-(methyl(phenyl)amino)piperidin-1-yl)-1-oxobutan-2-yl)benzamide]	500 to 5000 nM
Cc1cccc(C(=O)N[C@@H](C(=O)N2CCC(C)(Nc3cccc(C#N)c3)CC2)C(C)C)c1F [Example 2, (R)—N-(1-(4-(3-Cyanophenylamino)-4-methylpiperidin-1-yl)-3-methyl-1-oxobutan-2-yl)-2-fluoro-3-methylbenzamide]	5000 to 10000 nM
CC(C)[C@@H](NC(=O)c1cc(C(F)(F)F)ccc1F)C(=O)N1CCC(Nc2ccc(S(C)(=O)=O)cc2)CC1 [Example 22, (R)-2-Fluoro-N-(3-methyl-1-(4-(4-(methylsulfonyl)phenylamino)piperidin-1-yl)-1-oxobutan-2-yl)-5-(trifluoromethyl)benzamide]	≥ 10000 nM
CC(C)[C@@H](NC(=O)c1cc(C(C)(C)C)ccc1F)C(=O)N1CCC(C)(Nc2ccc(S(C)(=O)=O)cc2)CC1 [Example 29, (R)-5-tert-Butyl-2-fluoro-N-(3-methyl-1-(4-methyl-4-(4-(methylsulfonyl)phenylamino)piperidin-1-yl)-1-oxobutan-2-yl)benzamide]	500 to 5000 nM
CNC(=O)C1(Oc2ccccc2)CCN(C(=O)[C@H](NC(=O)c2cccc(C)c2F)C(C)C)CC1 [Example 14, (R)-1-(2-(2-Fluoro-3-methylbenzamido)-3-methylbutanoyl)-N-methyl-4-phenoxypiperidine-4-carboxamide]	500 to 5000 nM
CCc1ccc(F)c(C(=O)N[C@@H](C(=O)N2CCC(Oc3ccc(S(C)(=O)=O)cc3)(C(=O)NC)CC2)C(C)C)c1 [Example 15, (R)-1-(2-(5-Ethyl-2-fluorobenzamido)-3-methylbutanoyl)-N-methyl-4-(4-(methylsulfonyl)phenoxy)piperidine-4-carboxamide]	500 to 5000 nM
CC(C)[C@@H](NC(=O)c1cc(OC(F)(F)F)ccc1F)C(=O)N1CCC(C)(NC(=O)c2ccc(S(C)(=O)=O)cc2)CC1 [Example 37, (R)-2-Fluoro-N-(3-methyl-1-(4-methyl-4-(4-(methylsulfonyl)benzamido)piperidin-1-yl)-1-oxobutan-2-yl)-5-(trifluoromethoxy)benzamide]	500 to 5000 nM
CCc1ccc(F)c(C(=O)N[C@@H](C(=O)N2CCC(Oc3ccc(S(C)(=O)=O)cc3)(C(=O)N(C)C)CC2)C(C)C)c1 [Example 16, (R)-1-(2-(5-Ethyl-2-fluorobenzamido)-3-methylbutanoyl)-N,N-dimethyl-4-(4-(methylsulfonyl)phenoxy)piperidine-4-carboxamide]	500 to 5000 nM
CC1CCc2cc(F)c(C(=O)N[C@@H](C(=O)N3CCC(C)(Nc4ccc(S(C)(=O)=O)cc4)CC3)C(C)C)cc21 (stereo partly drawn) [Example 25, 6-Fluoro-3-methyl-N—((R)-3-methyl-1-(4-methyl-4-(4-(methylsulfonyl)phenylamino)piperidin-1-yl)-1-oxobutan-2-yl)-2,3-dihydro-1H-indene-5-carboxamide]	100 to 500 nM
CC(C)[C@@H](NC(=O)c1cccc(OC(F)(F)F)c1)C(=O)N1CCC(C)(Nc2ccccc2)CC1 [Example 7, (R)—N-(3-Methyl-1-(4-methyl-4-(phenylamino)piperidin-1-yl)-1-oxobutan-2-yl)-3-(trifluoromethoxy)benzamide]	500 to 5000 nM

Further lines, results first:

IC50	SMILES
10 to 100 nM	CC(C)Cc1ccc(F)c(C(=O)N[C@@H](C(=O)N2CCC(C)(Nc3ccc(S(C)(=O)=O)cc3)CC2)C(C)C)c1 [Example 31, (R)-2-Fluoro-5-isobutyl-N-(3-methyl-1-(4-methyl-4-(4-(methylsulfonyl)phenylamino)piperidin-1-yl)-1-oxobutan-2-yl)benzamide]
100 to 500 nM	CC(C)[C@@H](NC(=O)c1cc(OC(F)F)ccc1F)C(=O)N1CCC(C)(Nc2ccc(S(C)(=O)=O)cc2)CC1 [Example 28, (R)-5-(Difluoromethoxy)-2-fluoro-N-(3-methyl-1-(4-methyl-4-(4-(methylsulfonyl)phenylamino)piperidin-1-yl)-1-oxobutan-2-yl)benzamide]
100 to 500 nM	CC(C)[C@@H](NC(=O)c1cc(-c2ccccc2)ccc1F)C(=O)N1CCC(C)(Nc2ccc(S(C)(=O)=O)cc2)CC1 [Example 32, (R)-4-Fluoro-N-(3-methyl-1-(4-methyl-4-(4-(methylsulfonyl)phenylamino)piperidin-1-yl)-1-oxobutan-2-yl)biphenyl-3-carboxamide]
10 to 100 nM	CCc1ccc(F)c(C(=O)N[C@@H](C(=O)N2CCC(C)(Nc3ccc(S(C)(=O)=O)cc3)CC2)C(C)C)c1 [Example 4, (R)-5-Ethyl-2-fluoro-N-(3-methyl-1-(4-methyl-4-(4-(methylsulfonyl)phenylamino)piperidin-1-yl)-1-oxobutan-2-yl)benzamide]
10 to 100 nM	CC(C)c1ccc(F)c(C(=O)N[C@@H](C(=O)N2CCC(C)(Nc3ccc(S(C)(=O)=O)cc3)CC2)C(C)C)c1 [Example 36, (R)-2-Fluoro-5-isopropyl-N-(3-methyl-1-(4-methyl-4-(4-(methylsulfonyl)phenylamino)piperidin-1-yl)-1-oxobutan-2-yl)benzamide]
100 to 500 nM	CCc1cc(C(=O)N[C@@H](C(=O)N2CCC(C)(Nc3ccc(S(C)(=O)=O)cc3)CC2)C(C)C)c(F)cc1C [Example 34, (R)-5-Ethyl-2-fluoro-4-methyl-N-(3-methyl-1-(4-methyl-4-(4-(methylsulfonyl)phenylamino)piperidin-1-yl)-1-oxobutan-2-yl)benzamide]
10 to 100 nM	CCc1ccc(F)c(C(=O)N[C@@H](C(=O)N2CCC(C)(Nc3ccc(CS(C)(=O)=O)cc3)CC2)C(C)C)c1 [Example 26, (R)-5-Ethyl-2-fluoro-N-(3-methyl-1-(4-methyl-4-(4-(methylsulfonylmethyl)phenylamino)piperidin-1-yl)-1-oxobutan-2-yl)benzamide]
100 to 500 nM	CCc1ccc(F)c(C(=O)N[C@@H](C(=O)N2CCC(C)(CNc3ccc(S(C)(=O)=O)cc3)CC2)C(C)C)c1 [Example 35, (R)-5-Ethyl-2-fluoro-N-(3-methyl-1-(4-methyl-4-((4-(methylsulfonyl)phenylamino)methyl)piperidin-1-yl)-1-oxobutan-2-yl)benzamide]
100 to 500 nM	CC(C)[C@@H](NC(=O)c1cc(C(F)(F)F)ccc1F)C(=O)N1CCC(C)(Nc2ccc(C(=O)O)cc2)CC1 [Example 21, (R)-4-(1-(2-(2-Fluoro-5-(trifluoromethyl)benzamido)-3-methylbutanoyl)-4-methylpiperidin-4-ylamino)benzoic acid]
10 to 100 nM	CC(C)[C@@H](NC(=O)c1cc(OC(F)(F)F)ccc1F)C(=O)N1CCC(C)(NCc2ccc(S(C)(=O)=O)cc2)CC1 [Example 39, (R)-2-Fluoro-N-(3-methyl-1-(4-methyl-4-((4-(methylsulfonyl)benzyl)amino)piperidin-1-yl)-1-oxobutan-2-yl)-5-(trifluoromethoxy)benzamide]
100 to 500 nM	CC(C)[C@@H](NC(=O)c1cc(OC(F)(F)F)ccc1F)C(=O)N1CCC(C)(Nc2ccccc2)CC1 [Example 10, (R)-2-Fluoro-N-(3-methyl-1-(4-methyl-4-(phenylamino)piperidin-1-yl)-1-oxobutan-2-yl)-5-(trifluoromethoxy)benzamide]
100 to 500 nM	CC1(Nc2ccc(S(C)(=O)=O)cc2)CCN(C(=O)[C@H](NC(=O)c2cc(OC(F)(F)F)ccc2F)C2CC2)CC1 [Example 13, (R)—N-(1-Cyclopropyl-2-(4-methyl-4-((4-(methylsulfonyl)phenyl)amino)piperidin-1-yl)-2-oxoethyl)-2-fluoro-5-(trifluoromethoxy)benzamide]
